Experimental findings from patent US20230348369A1 (Cytokinetics, Inc., priority 2020, published 2023) are described below.

SMILES strings stand for the structures. Like-named read-outs stand apart in the source and are kept apart here. Bounds are passed on as bounds.

The target in test [1] is human NAMPT (Homo sapiens, UniProt P43490). As to the kind of experiment: Human recombinant enzyme assay (NMN fluorescence biochemical assay, activation of NAMPT). A digest of the protocol: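 NMN production is detected fluorometrically (Ex 355/Em 460 nm) 40 min after acetophenone, KOH and formic acid derivatization. Reactions ran 60 min at ambient temperature: 6 nM human NAMPT, nicotinamide 150 μM, PRPP 20 μM, ATP 2.5 mM, buffered at pH 7.2 with 50 mM HEPES plus DTT, CHAPS, NaCl and 100 mM MgCl2.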

Test [2] has as its target T1, endogenous NAMPT (Homo sapiens, UniProt P43490).
T1 construct: stimulate the endogenous NAMPT in a native cellular environment; endogenous in cells; host or cells: SH-SY5Y neuroblastoma cells
In words: Cellular NAD+ modulation assay in neuroblastoma SH-SY5Y cells. Type of test: cell-based. The protocol: The compounds described herein were also assayed for their ability to stimulate the endogenous NAMPT in a native cellular environment in the cellular NAD+ modulation assay, which measures the ability of the compound to modulate cellular NAD levels. Increased levels of NAD are expected by compounds that permeate the cells and activate the catalytic activity of the endogenous NAMPT.
Neuroblastoma SH-SY5Y cells were grown in 1:1 mixture of Eagle's Minimum Essential Medium and F12 Medium, along with 10% fetal bovine serum, in a humidified incubator with an atmosphere of 95% air and 5% CO2 at 37° C. The assays were initiated by plating 20 μL of SH-SY5Y cells in culture medium with 0.1% fetal bovine serum, at a density of 5000 cells per well to a 384-well Corning™ BioCoat™ Poly-D-Lysine Multiwell Plates. The plates were incubated in the 37° C. incubators for a period of 5 hours. Compounds in DMSO were added to the plates in a volume of 120 nL using the Labcyte Echo Liquid Handlers. […] The plates are then incubated for 40 hours. 30 μL of a readout-solution containing 0.2 U/mL Diaphorase enzyme, 40 uM resazurin, 10 uM FMN, 0.8 U/mL Alcohol dehydrogenase, 3% ethanol, 0.4 mg/mL bovine serum albumin, 0.2% Triton X-100 in 100 mM Tris-HCl, 30 mM EDTA, pH 8.4. The plates were read for fluorescence (Excitation/Emission=540 nm/590 nm) using an EnVision plate reader after 60 mins of incubation at ambient temperature.

The mark [3] stands for this setting: Table A, human recombinant NAMPT, NMN formation, 60 min.
The mark [4] stands for this setting: Table A, human recombinant NAMPT, NMN formation, 60 min, read-out: EC50 Human.
Where [5] appears, read: Table B, SH-SY5Y cells, cellular NAD levels, doxorubicin, 40 hours.
Where [6] appears, read: Table B, SH-SY5Y cells, cellular NAD levels, doxorubicin, 40 hours, read-out: EC50.

human NAMPT, sequence (P43490 whole entry): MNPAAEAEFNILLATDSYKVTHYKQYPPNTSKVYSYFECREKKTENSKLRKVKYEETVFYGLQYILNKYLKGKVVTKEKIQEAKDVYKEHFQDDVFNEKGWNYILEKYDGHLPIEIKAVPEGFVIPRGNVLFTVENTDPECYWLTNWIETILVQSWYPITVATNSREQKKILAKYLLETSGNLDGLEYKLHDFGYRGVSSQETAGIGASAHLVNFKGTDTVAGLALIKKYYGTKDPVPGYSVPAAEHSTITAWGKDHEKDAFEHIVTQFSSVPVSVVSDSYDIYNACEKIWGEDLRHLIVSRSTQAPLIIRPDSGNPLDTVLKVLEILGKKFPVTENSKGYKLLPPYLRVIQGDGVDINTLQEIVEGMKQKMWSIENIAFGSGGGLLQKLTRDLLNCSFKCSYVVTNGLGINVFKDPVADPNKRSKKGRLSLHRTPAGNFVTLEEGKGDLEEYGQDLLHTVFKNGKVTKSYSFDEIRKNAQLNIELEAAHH
T1 sequence (P43490 whole entry): as above

As to `CC(C)(O)CN1CCN(C(=O)[C@H]2C[C@@]3(C[C@H](NC(=O)NCc4ccc(Cl)cc4)C3)C2)CC1` (single isomer, unassigned) [Compound 187], the EC50 in test [1] was determined as 0.6 µM; in test [2] it was 0.2 µM.

As for `COc1ccc(CNC(=O)NC2CC3(C2)CC(C(=O)N(C)C2CCOC2)C3)cc1` (stereo in doubt) [Compound 79, (R)-6-(3-(4-methoxybenzyl)ureido)-N-methyl-N-(tetrahydrofuran-3-yl)spiro[3.3]heptane-2-carboxamide], the “AC1.4 Human” value in test [1] (setting [3]) stood at 1.4 µM. Also, the 50% effective concentration (EC50) in test [1] (setting [4]) was found to be 39.8 µM; in test [2] (setting [6]), 5.8 µM. The compound further had an AC0.3 in test [2] (setting [5]) of 5.8 µM.

On to `COc1ccc(CNC(=O)NC2CC3(C2)CC(NC(=O)OC(C)(C)C)C3)cc1` (centres unmarked) [Compound 7, tert-butyl (6-(3-(4-methoxybenzyl)ureido)spiro[3.3]heptan-2-yl)carbamate], for which the “AC1.4 Human” value in test [1] (setting [3]) stood at 5.1 µM. The figures for the EC50 in test [1] (setting [4]) and in test [2] (setting [6]) were 26.3 µM and 4.7 µM, respectively. The same compound came in with an AC0.3 in test [2] (setting [5]) of 2.4 µM.

As to `NC(=O)c1ccc(CNC(=O)NC2CC3(C2)CC(NC(=O)c2ccccc2)C3)cc1` (centres unmarked) [Compound 14, N-(6-(3-(4-carbamoylbenzyl)ureido)spiro[3.3]heptan-2-yl)benzamide], the “AC1.4 Human” value in test [1] (setting [3]) was 2.7 µM. Also, the EC50 in test [1] (setting [4]) was 35.3 µM; in test [2] (setting [6]), no less than 20.1 µM. The AC0.3 in test [2] (setting [5]) was greater than 20.1 µM.

On to `O=C(NCCCCC1CCN(C(=O)c2ccccc2)CC1)NCc1ccc(Cl)cc1` [Compound 16, 1-(4-(1-benzoylpiperidin-4-yl)butyl)-3-(4-chlorobenzyl)urea], for which the EC50 in test [1] was 0.3 µM; in test [2], 0.1 µM. The “AC1.4 Human” value in test [1] (setting [3]) is 0.1 µM. In test [2] (setting [5]), the AC0.3 amounted to 0.1 µM.

With `NC(=O)c1ccc(CNC(=O)NCCCCC2CCN(C(=O)c3ccccc3)CC2)cc1` [Compound 19, 4-((3-(4-(1-benzoylpiperidin-4-yl)butyl)ureido)methyl)benzamide], the “AC1.4 Human” value in test [1] (setting [3]) worked out at 0.1 µM. Further, the half-maximal effective concentration (EC50) was found to be 1.8 µM in test [1] (setting [4]) and 1.3 µM in test [2] (setting [6]). Also, in test [2] (setting [5]), the AC0.3 stood at 1.6 µM.

Take `COc1ccc(CNC(=O)NCCCCC2CCN(C(=O)c3ccccc3)CC2)cc1` [Compound 20, 1-(4-(1-benzoylpiperidin-4-yl)butyl)-3-(4-methoxybenzyl)urea]: in test [1] (setting [3]), the “AC1.4 Human” value stood at 0.2 µM. Also, the EC50 in test [1] (setting [4]) was 4.7 µM; in test [2] (setting [6]) it was 13.9 µM. In addition, the AC0.3 in test [2] (setting [5]) was 0.4 µM.

With `O=C(NCCCCC1CCN(C(=O)c2ccccc2)CC1)NCc1ccc(CO)cc1` [Compound 22, 1-(4-(1-benzoylpiperidin-4-yl)butyl)-3-(4-(hydroxymethyl)benzyl)urea], the “AC1.4 Human” value in test [1] (setting [3]) was determined as 0.1 µM. For the same compound, the EC50 in test [1] (setting [4]) worked out at 1.1 µM; in test [2] (setting [6]), 0.1 µM. This compound gave an AC0.3 in test [2] (setting [5]) of 0.4 µM.

On to `O=C(NCCCCC1CCN(C(=O)c2ccccc2)CC1)NCc1cnco1` [Compound 23, 1-(4-(1-benzoylpiperidin-4-yl)butyl)-3-(oxazol-5-ylmethyl)urea], for which the “AC1.4 Human” value in test [1] (setting [3]) came to 0.1 µM. Further, the concentration for a half-maximal effect (EC50) amounted to 1.4 µM in test [1] (setting [4]) and 0.3 µM in test [2] (setting [6]). In test [2] (setting [5]), this compound showed an AC0.3 of 0.3 µM.

For `CC(C)(C)OC(=O)N1CCC2(CC1)CC2CNC(=O)NCc1ccc(Cl)cc1` (centres unmarked) [Compound 27, tert-butyl 1-((3-(4-chlorobenzyl)ureido)methyl)-6-azaspiro[2.5]octane-6-carboxylate], the EC50 in test [1] was found to be 21.5 µM; in test [2], 5.8 µM.

As for `CC(C)(C)OC(=O)N1CCC2(CC1)CC2CNC(=O)NCc1ccc(CO)cc1` (centres unmarked) [Compound 29, tert-butyl 1-((3-(4-(hydroxymethyl)benzyl)ureido)methyl)-6-azaspiro[2.5]octane-6-carboxylate], the EC50 in test [1] (setting [4]) was found to be 26.7 µM; in test [2] (setting [6]), 2.2 µM.

For the compound `CC(C)(C)OC(=O)N1CCC2(CC1)CC2CNC(=O)NCc1ccc(C(N)=O)cc1` (centres unmarked) [Compound 33, tert-butyl 1-((3-(4-carbamoylbenzyl)ureido)methyl)-6-azaspiro[2.5]octane-6-carboxylate], the EC50 stood at 19.8 µM in test [1] (setting [4]) and 8.4 µM in test [2] (setting [6]).

For the compound `COc1ccc(CNC(=O)NC2CC3(C2)CC(C(=O)N2CCCc4ccccc42)C3)cc1` (centres unmarked) [Compound 71, 1-(4-methoxybenzyl)-3-(6-(1,2,3,4-tetrahydroquinoline-1-carbonyl)spiro[3.3]heptan-2-yl)urea], the “AC1.4 Human” value in test [1] (setting [3]) was 0.1 µM. The EC50 in test [1] (setting [4]) worked out at 1.5 µM; in test [2] (setting [6]), 0.9 µM. The compound also came in with an AC0.3 in test [2] (setting [5]) of 0.3 µM.

Take `COc1ccc(CNC(=O)NC2CC3(C2)CC(C(=O)N2Cc4ccccc4C2)C3)cc1` (centres unmarked) [Compound 73, 1-(6-(isoindoline-2-carbonyl)spiro[3.3]heptan-2-yl)-3-(4-methoxybenzyl)urea]: the “AC1.4 Human” value in test [1] (setting [3]) was determined as 1.2 µM. Further, the results for the EC50 in test [1] (setting [4]) and in test [2] (setting [6]) were 7.7 µM and 0.8 µM, respectively. In addition, the AC0.3 in test [2] (setting [5]) was found to be 0.8 µM.

Turning to `COc1ccc(CNC(=O)NC2CC3(C2)CC(C(=O)N2CCc4ccccc42)C3)cc1` (centres unmarked) [Compound 74, 1-(6-(indoline-1-carbonyl)spiro[3.3]heptan-2-yl)-3-(4-methoxybenzyl)urea], in test [1] (setting [3]), the “AC1.4 Human” value came to 0.8 µM. For the same compound, the EC50 in test [1] (setting [4]) amounted to 13.3 µM; in test [2] (setting [6]), 0.5 µM. Besides, in test [2] (setting [5]), the AC0.3 is 0.3 µM.

On to `COc1ccc(CNC(=O)NC2CC3(C2)CC(Oc2cccnc2)C3)cc1` (centres unmarked) [Compound 344, 1-(4-methoxybenzyl)-3-(6-(pyridin-3-yloxy)spiro[3.3]heptan-2-yl)urea], for which the “AC1.4 Human” value in test [1] (setting [3]) was found to be 3.1 µM. Also, in test [1] (setting [4]), the EC50 was found to be 34.9 µM.

For the compound `O=C(NCc1ccc(Cl)cc1)NC1CC2(CC(Cc3cccnc3)C2)C1` (centres unmarked) [Compound 345, 1-(4-chlorobenzyl)-3-(6-(pyridin-3-ylmethyl)spiro[3.3]heptan-2-yl)urea], in test [1] (setting [3]), the “AC1.4 Human” value was 1.6 µM. For the same compound, the EC50 in test [1] (setting [4]) worked out at 0.6 µM.

Consider `Cc1ccc(CC2CC3(C2)CC(NC(=O)NCc2ccc(Cl)cc2)C3)cn1` (centres unmarked) [Compound 347, 1-(4-chlorobenzyl)-3-(6-((6-methylpyridin-3-yl)methyl)spiro[3.3]heptan-2-yl)urea], for which the “AC1.4 Human” value in test [1] (setting [3]) amounted to 2.2 µM. Further, the EC50 in test [1] (setting [4]) worked out at 2.4 µM.

In the case of `O=C(NCc1ccc(Cl)cc1)NC1CC2(C1)CC(OCc1ccncc1)C2` (centres unmarked) [Compound 348, 1-(4-chlorobenzyl)-3-(6-(pyridin-4-ylmethoxy)spiro[3.3]heptan-2-yl)urea], the “AC1.4 Human” value in test [1] (setting [3]) is 5.0 µM. The EC50 in test [1] (setting [4]) is 5.9 µM.

Consider `COc1ccc(CNC(=O)NC2CC3(C2)CC(OCc2ccncc2)C3)cc1` (centres unmarked) [Compound 349, 1-(4-methoxybenzyl)-3-(6-(pyridin-4-ylmethoxy)spiro[3.3]heptan-2-yl)urea], for which the “AC1.4 Human” value in test [1] (setting [3]) was 6.9 µM. The concentration for a half-maximal effect (EC50) in test [1] (setting [4]) turned out to be 40.3 µM.

Consider `O=C(NCc1ccc(Cl)cc1)NC1CC2(C1)CC(OCc1cccnc1)C2` (centres unmarked) [Compound 350, 1-(4-chlorobenzyl)-3-(6-(pyridin-3-ylmethoxy)spiro[3.3]heptan-2-yl)urea], for which the “AC1.4 Human” value in test [1] (setting [3]) was 1.7 µM. Also, in test [1] (setting [4]), the EC50 worked out at 6.1 µM.

In the case of `COc1ccc(CNC(=O)NC2CC3(C2)CC(OCc2cccnc2)C3)cc1` (centres unmarked) [Compound 351, 1-(4-methoxybenzyl)-3-(6-(pyridin-3-ylmethoxy)spiro[3.3]heptan-2-yl)urea], the “AC1.4 Human” value in test [1] (setting [3]) amounted to 4.0 µM. Besides, the EC50 in test [1] (setting [4]) came out at 38.7 µM.

On to `O=C(NCc1ccc(Cl)cc1)NC1CC2(CC(CS(=O)(=O)c3ccccc3)C2)C1` (centres unmarked) [Compound 352, 1-(4-chlorobenzyl)-3-(6-((phenylsulfonyl)methyl)spiro[3.3]heptan-2-yl)urea], for which the “AC1.4 Human” value in test [1] (setting [3]) is 6.0 µM. For the same compound, in test [1] (setting [4]), the EC50 is 8 µM.

On to `O=C(NCc1ccc(Cl)cc1)NC1CC2(CC(CS(=O)(=O)c3cccnc3)C2)C1` (centres unmarked) [Compound 353, 1-(4-chlorobenzyl)-3-(6-((pyridin-3-ylsulfonyl)methyl)spiro[3.3]heptan-2-yl)urea], for which the “AC1.4 Human” value in test [1] (setting [3]) amounted to 5.3 µM. Also, the EC50 in test [1] (setting [4]) is 16.9 µM.

Regarding `O=C(NCc1ccc(Cl)cc1)N[C@H]1C[C@]2(CCN(C(=O)N3CCC(N4CCCCC4)CC3)C2)C1` [Compound 354, 1-((2r,4s)-6-([1,4′-bipiperidine]-1′-carbonyl)-6-azaspiro[3.4]octan-2-yl)-3-(4-chlorobenzyl)urea], in test [1] (setting [3]), the “AC1.4 Human” value was 4.2 µM.

One may read the EC50 as the midpoint of the concentration-response curve.
